Where “and” joins values, the source holds several entries; their conditions need not be identical. Equal entries are not always repeated. Toxic doses and inconclusive results are not listed.

This test concerns BDF1 mice, P388 leukemia ip, median survival T/C. The experiment in a line: NCI In Vivo Anticancer Drug Screen. Data for tumor model P388 Leukemia (intraperitoneal) in B6D2F1 (BDF1) mice. Conditions: endpoint: median survival time, higher = longer survival. Put shortly:
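Vehicle-dosed animals serve as the reference; survival of compound-dosed, tumour-implanted mice is divided by it.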

Where [1] appears, read: dose: 100.0 mg/kg/injection, schedule: Q01DX001 (ip), vehicle: saline with Tween-80.
The mark [2] stands for this setting: dose: 200.0 mg/kg/injection, schedule: Q01DX001 (ip), vehicle: saline with Tween-80.
The mark [3] stands for this setting: dose: 50.0 mg/kg/injection, schedule: Q01DX009 (ip), vehicle: saline with Tween-80.
The mark [4] stands for this setting: dose: 100.0 mg/kg/injection, schedule: Q01DX009 (ip), vehicle: saline with Tween-80.
Where [5] appears, read: dose: 200.0 mg/kg/injection, schedule: Q01DX009 (ip), vehicle: saline with Tween-80.
Setting [6] is: dose: 100.0 mg/kg/injection, schedule: Q04DX003 (ip), vehicle: saline.
Setting [7] is: dose: 200.0 mg/kg/injection, schedule: Q04DX003 (ip), vehicle: saline.
Setting [8] is: dose: 400.0 mg/kg/injection, schedule: Q04DX003 (ip), vehicle: saline.
Setting [9] is: dose: 100.0 mg/kg/injection, schedule: Q01DX009 (ip), vehicle: Klucel (hydroxypropylcellulose) (HPC).
The mark [10] stands for this setting: dose: 200.0 mg/kg/injection, schedule: Q01DX009 (ip), vehicle: Klucel (hydroxypropylcellulose) (HPC).
[11] abbreviates: dose: 400.0 mg/kg/injection, schedule: Q01DX009 (ip), vehicle: Klucel (hydroxypropylcellulose) (HPC).
Where [12] appears, read: dose: 25.0 mg/kg/injection, schedule: Q01DX009 (ip), vehicle: saline.
[13] abbreviates: dose: 25.0 mg/kg/injection, schedule: Q04DX003 (ip), vehicle: saline.
[14] abbreviates: dose: 50.0 mg/kg/injection, schedule: Q01DX009 (ip), vehicle: saline.
Setting [15] is: dose: 50.0 mg/kg/injection, schedule: Q04DX003 (ip), vehicle: saline.
The mark [16] stands for this setting: dose: 12.5 mg/kg/injection, schedule: Q04DX003 (ip), vehicle: saline.

As to `CCNC(=O)N(CC(N)=O)c1ncc([N+](=O)[O-])s1`, the T/C runs as follows: (dose: 12.5 mg/kg/injection, schedule: Q01DX001 (ip), vehicle: saline with Tween-80) 98 % of control; (dose: 25.0 mg/kg/injection, schedule: Q01DX001 (ip), vehicle: saline with Tween-80) 106 % of control; (dose: 50.0 mg/kg/injection, schedule: Q01DX001 (ip), vehicle: saline with Tween-80) 98 % of control; (dose: 50.0 mg/kg/injection, schedule: Q01DX005 (ip), vehicle: saline with Tween-80) 94 % of control; under setting [1], 93 % of control; (dose: 100.0 mg/kg/injection, schedule: Q01DX005 (ip), vehicle: saline with Tween-80) 86 % of control. In addition, the T/C runs as follows: under setting [2], 98 % of control; (dose: 200.0 mg/kg/injection, schedule: Q01DX005 (ip), vehicle: saline with Tween-80) 96 % of control.

As to `CC1CC(OC(=O)CCN2CC2)CC(C)(C)C1` (centres undefined), the T/C by setting is: (dose: 5.0 mg/kg/injection, schedule: Q04DX003 (ip), vehicle: Klucel (hydroxypropylcellulose) (HPC)) 95 % of control and 109 % of control; (dose: 10.0 mg/kg/injection, schedule: Q04DX003 (ip), vehicle: Klucel (hydroxypropylcellulose) (HPC)) 104 % of control; (dose: 20.0 mg/kg/injection, schedule: Q04DX003 (ip), vehicle: Klucel (hydroxypropylcellulose) (HPC)) 100 % of control.

On to `CC1OC(O[C@@H]2C=C3CC[C@@H]4[C@H](CC[C@]5(C)[C@@H](c6ccc(=O)oc6)CC[C@]45O)[C@@]3(C)CC2)C(O)C(O)C1O` (some centres undefined), for which the T/C is, setting by setting: (dose: 2.5 mg/kg/injection, schedule: Q01DX010 (ip), vehicle: carboxymethylcellulose (CMC)) 105 % of control; (dose: 5.0 mg/kg/injection, schedule: Q01DX010 (ip), vehicle: carboxymethylcellulose (CMC)) 105 % of control.

`Nc1nc(SCc2cccc(Br)c2)c2ncn(C3OC(CO)C(O)C3O)c2n1` (centres undefined): the T/C is, setting by setting: (dose: 100.0 mg/kg/injection, schedule: Q04DX003 (ip), vehicle: saline with Tween-80) 104 % of control; (dose: 200.0 mg/kg/injection, schedule: Q04DX003 (ip), vehicle: saline with Tween-80) 122 % of control.

Turning to `Cc1csc(NC(O)C(Cl)(Cl)Cl)n1` (centres undefined), the T/C reads like this: under setting [3], 98 % of control; under setting [4], 106 % of control; under setting [5], 101 % of control.

On to `COC(=O)C1CCCCC1NC(C)=O` (centres undefined), for which the T/C was 95 % of control under setting [6], 100 % of control under setting [7] and 91 % of control under setting [8].

Turning to `Cc1c([N+](=O)[O-])c(C)c([N+](=O)[O-])c(C(C)(C)C)c1[N+](=O)[O-]`, the T/C was 100 % of control under setting [9]; 87 % of control (dose: 100.0 mg/kg/injection, schedule: Q04DX003 (ip), vehicle: Klucel (hydroxypropylcellulose) (HPC)); 87 % of control under setting [10]; 87 % of control (dose: 200.0 mg/kg/injection, schedule: Q04DX003 (ip), vehicle: Klucel (hydroxypropylcellulose) (HPC)); 95 % of control under setting [11]; 91 % of control (dose: 400.0 mg/kg/injection, schedule: Q04DX003 (ip), vehicle: Klucel (hydroxypropylcellulose) (HPC)).

With `CCOC(=O)CNC(=O)N(CC)C12CC3CC(CC(C3)C1)C2`, the T/C under setting [9] is 94 % of control; the T/C (dose: 130.0 mg/kg/injection, schedule: Q01DX009 (ip), vehicle: Klucel (hydroxypropylcellulose) (HPC)) is 111 % of control; the T/C under setting [10] is 100 % of control; the T/C (dose: 300.0 mg/kg/injection, schedule: Q01DX009 (ip), vehicle: Klucel (hydroxypropylcellulose) (HPC)) is 109 % of control; the T/C under setting [11] is 122 % of control.

Turning to `CCN(CC)Cc1cc(Nc2ccnc3cc(Cl)ccc23)cc(-c2ccc(Cl)cc2)c1O`, the T/C reads like this: under setting [3], 110 % of control; under setting [4], 102 % of control; under setting [5], 102 % of control.

Take `O=C1OC(COCC#Cc2ccccc2)CN1c1ccccc1` (centres undefined): the T/C reads like this: under setting [4], 104 % of control; under setting [6], 92 % of control; under setting [5], 100 % of control; under setting [7], 107 % of control; (dose: 400.0 mg/kg/injection, schedule: Q01DX009 (ip), vehicle: saline with Tween-80) 100 % of control; under setting [8], 92 % of control.

For the compound `O=C(OC1(c2ccccc2)CCC1)c1cc([N+](=O)[O-])cc([N+](=O)[O-])c1`, the T/C reads like this: under setting [1], 97 % of control; under setting [2], 96 % of control; (dose: 400.0 mg/kg/injection, schedule: Q01DX001 (ip), vehicle: saline with Tween-80) 99 % of control.

Take `NC(N)=NC(N)=Nc1cnccn1`: the T/C under setting [12] was 110 % of control; the T/C under setting [13] is 100 % of control; the T/C under setting [14] was 120 % of control; the T/C under setting [15] is 100 % of control; the T/C (dose: 100.0 mg/kg/injection, schedule: Q01DX009 (ip), vehicle: saline) is 120 % of control; the T/C under setting [6] is 95 % of control.

Take `CCCCN1CCNCC1`: the T/C reads like this: under setting [15], 95 % of control; under setting [6], 100 % of control; under setting [7], 100 % of control.

As for `CN(C)c1ncnc2c1ncn2C1OC(CO)C(N)C1O` (centres undefined), the T/C was 95 % of control (dose: 14.0 mg/kg/injection, schedule: Q01DX009 (ip), vehicle: saline); 100 % of control (dose: 22.0 mg/kg/injection, schedule: Q01DX009 (ip), vehicle: saline); 150 % of control and 177 % of control under setting [14].

Regarding `O=S(=O)(O)CCO`, the T/C is, setting by setting: (dose: 200.0 mg/kg/injection, schedule: Q01DX009 (ip), vehicle: saline) 92 % of control; (dose: 400.0 mg/kg/injection, schedule: Q01DX009 (ip), vehicle: saline) 100 % of control.

As to `N#CN=C([S-])[S-].N#CN=C([S-])[S-].[Cu]`, the T/C was 104 % of control (dose: 0.39 mg/kg/injection, schedule: Q01DX001 (ip), vehicle: saline); 100 % of control (dose: 0.78 mg/kg/injection, schedule: Q01DX001 (ip), vehicle: saline); 100 % of control (dose: 1.56 mg/kg/injection, schedule: Q01DX001 (ip), vehicle: saline); 100 % of control (dose: 6.25 mg/kg/injection, schedule: Q01DX009 (ip), vehicle: saline); 86 % of control (dose: 6.25 mg/kg/injection, schedule: Q04DX003 (ip), vehicle: saline); 100 % of control under setting [16].

For the compound `CN1C2CCC1CN(Cc1ccccc1)C2`, the T/C was 95 % of control (dose: 12.5 mg/kg/injection, schedule: Q01DX009 (ip), vehicle: saline); 88 % of control under setting [16]; 95 % of control under setting [12]; 100 % of control under setting [13]; 91 % of control under setting [14]; 100 % of control under setting [15].

On to `O=S(=O)(ON=C1C=CC(=NOS(=O)(=O)c2ccccc2)C=C1)c1ccccc1`, for which the T/C reads like this: (dose: 3.13 mg/kg/injection, schedule: Q04DX003 (ip), vehicle: Klucel (hydroxypropylcellulose) (HPC)) 109 % of control; (dose: 6.25 mg/kg/injection, schedule: Q04DX003 (ip), vehicle: Klucel (hydroxypropylcellulose) (HPC)) 111 % of control; (dose: 12.5 mg/kg/injection, schedule: Q04DX003 (ip), vehicle: Klucel (hydroxypropylcellulose) (HPC)) 109 % of control; (dose: 25.0 mg/kg/injection, schedule: Q04DX003 (ip), vehicle: Klucel (hydroxypropylcellulose) (HPC)) 109 % of control.

On to `CS(=O)(=NC(=S)Nc1ccccc1)c1ccccc1` (centres undefined), for which the T/C is 115 % of control (dose: 75.0 mg/kg/injection, schedule: Q01DX001 (ip), vehicle: other); 95 % of control (dose: 150.0 mg/kg/injection, schedule: Q01DX001 (ip), vehicle: other); 100 % of control (dose: 300.0 mg/kg/injection, schedule: Q01DX001 (ip), vehicle: other).

As to `O=C1CSC(C2CCCCC2)N1c1nccs1` (centres undefined), the T/C was 110 % of control under setting [3], 112 % of control under setting [4] and 110 % of control under setting [5].

Regarding `O=c1[nH]cnc2[nH]ccc12`, the T/C reads like this: (dose: 6.25 mg/kg/injection, schedule: Q01DX009 (ip), vehicle: saline with Tween-80) 99 % of control; (dose: 12.5 mg/kg/injection, schedule: Q01DX009 (ip), vehicle: saline with Tween-80) 103 % of control; (dose: 25.0 mg/kg/injection, schedule: Q01DX009 (ip), vehicle: saline with Tween-80) 96 % of control; under setting [3], 99 % of control.

For the origin of these results see PubChem BioAssay AID328 (DTP/NCI, 2004).
